In the supplement of paper PMC10307832:

Tests used:
Test in all cases: relative viability (nuclei count vs DMSO), 5 days (fraction); higher = more cells survive
CAL-12T = test system: CAL-12T
Method in brief: (§1)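 Medians of duplicate plates are given as relative viability. That measure is the nuclei count in treated wells divided by the count in vehicle wells. Counts were taken on 4× images of lung cancer cell lines in 1536-well plates, 5 days after pin-tool dosing the day after seeding with one drug alone or a fixed anchor-drug dose plus five library-drug doses (not always all listed) in √10 steps.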

NCI-H460 = test system: NCI-H460
Method in brief: as §1

NCI-H1563 = test system: NCI-H1563
Method in brief: as §1

NCI-H1651 = test system: NCI-H1651
Method in brief: as §1

HCC-44 = test system: HCC-44
Method in brief: as §1

LK-2 = test system: LK-2
Method in brief: as §1

NCI-H520 = test system: NCI-H520
Method in brief: as §1

HCC-15 = test system: HCC-15
Method in brief: as §1

EKVX = test system: EKVX
Method in brief: as §1

NCI-H358 = test system: NCI-H358
Method in brief: as §1

NCI-H838 = test system: NCI-H838
Method in brief: as §1

COR-L 105 = test system: COR-L 105
Method in brief: as §1

NCI-H322M = test system: NCI-H322M
Method in brief: as §1

LU99A = test system: LU99A
Method in brief: as §1

201T = test system: 201T
Method in brief: as §1

NCI-H2023 = test system: NCI-H2023
Method in brief: as §1

NCI-H727 = test system: NCI-H727
Method in brief: as §1

PC-3 [JPC-3] = test system: PC-3 [JPC-3]
Method in brief: as §1

EMC-BAC-2 = test system: EMC-BAC-2
Method in brief: as §1

ABC-1 = test system: ABC-1
Method in brief: as §1

BEN = test system: BEN
Method in brief: as §1

**Q.** Which relative viability (CAL-12T; first compound 0.02 µM) does the source give for `CN1CCN(CCOc2cc(OC3CCOCC3)c3c(Nc4c(Cl)ccc5c4OCO5)ncnc3c2)CC1` [Saracatinib] + C[C@]1(O)C[C@@H](c2nc(-c3ccc4ccc(-c5ccccc5)nc4c3)c3c(N)nccn32)C1 [Linsitinib] (partner 1 µM) here?
**A.** 0.805

**Q.** What about the relative viability (CAL-12T; first compound 0.2 µM) of the same compound?
**A.** 0.776

**Q.** And the relative viability (CAL-12T; first compound 0.6325 µM)?
**A.** 0.863

**Q.** And the relative viability (CAL-12T; first compound 2 µM)?
**A.** 1.03

**Q.** What about the relative viability (NCI-H460; first compound 0.02 µM) of the same compound?
**A.** 0.716

**Q.** What about the relative viability (NCI-H460; first compound 0.2 µM) of the same compound?
**A.** 0.664

**Q.** What about the relative viability (NCI-H460; first compound 0.6325 µM) of the same compound?
**A.** 0.329

**Q.** And the relative viability (NCI-H460; first compound 2 µM)?
**A.** 0.181

**Q.** What about the relative viability (NCI-H1563; first compound 0.02 µM) of the same compound?
**A.** 1.09

**Q.** What about the relative viability (NCI-H1563; first compound 0.2 µM) of the same compound?
**A.** 1.16

**Q.** What about the relative viability (NCI-H1563; first compound 0.6325 µM) of the same compound?
**A.** 1.05

**Q.** What about the relative viability (NCI-H1563; first compound 2 µM) of the same compound?
**A.** 0.891

**Q.** What about the relative viability (NCI-H1651; first compound 0.02 µM) of the same compound?
**A.** 0.944

**Q.** And the relative viability (NCI-H1651; first compound 0.2 µM)?
**A.** 0.661

**Q.** And the relative viability (NCI-H1651; first compound 0.6325 µM)?
**A.** 0.807

**Q.** What about the relative viability (NCI-H1651; first compound 2 µM) of the same compound?
**A.** 0.67

**Q.** What about the relative viability (HCC-44; first compound 0.02 µM) of the same compound?
**A.** 0.729

**Q.** And the relative viability (HCC-44; first compound 0.2 µM)?
**A.** 0.51

**Q.** And the relative viability (HCC-44; first compound 0.6325 µM)?
**A.** 0.823

**Q.** And the relative viability (HCC-44; first compound 2 µM)?
**A.** 0.717

**Q.** What about the relative viability (LK-2; first compound 0.02 µM) of the same compound?
**A.** 0.52

**Q.** And the relative viability (LK-2; first compound 0.2 µM)?
**A.** 0.484

**Q.** And the relative viability (LK-2; first compound 0.6325 µM)?
**A.** 0.375

**Q.** And the relative viability (LK-2; first compound 2 µM)?
**A.** 0.3

**Q.** What about the relative viability (NCI-H520; first compound 0.02 µM) of the same compound?
**A.** 0.911

**Q.** What about the relative viability (NCI-H520; first compound 0.2 µM) of the same compound?
**A.** 0.786

**Q.** And the relative viability (NCI-H520; first compound 0.6325 µM)?
**A.** 0.825

**Q.** And the relative viability (NCI-H520; first compound 2 µM)?
**A.** 0.504

**Q.** What about the relative viability (HCC-15; first compound 0.02 µM) of the same compound?
**A.** 0.911

**Q.** And the relative viability (HCC-15; first compound 0.2 µM)?
**A.** 0.84

**Q.** And the relative viability (HCC-15; first compound 0.6325 µM)?
**A.** 0.86

**Q.** What about the relative viability (HCC-15; first compound 2 µM) of the same compound?
**A.** 0.726

**Q.** What about the relative viability (EKVX; first compound 0.02 µM) of the same compound?
**A.** 0.988

**Q.** What about the relative viability (EKVX; first compound 0.2 µM) of the same compound?
**A.** 0.861

**Q.** And the relative viability (EKVX; first compound 0.6325 µM)?
**A.** 0.866

**Q.** What about the relative viability (EKVX; first compound 2 µM) of the same compound?
**A.** 0.318

**Q.** What about the relative viability (NCI-H358; first compound 0.02 µM) of the same compound?
**A.** 0.813

**Q.** And the relative viability (NCI-H358; first compound 0.2 µM)?
**A.** 0.51

**Q.** What about the relative viability (NCI-H358; first compound 0.6325 µM) of the same compound?
**A.** 0.403

**Q.** What about the relative viability (NCI-H358; first compound 2 µM) of the same compound?
**A.** 0.279

**Q.** And the relative viability (NCI-H838; first compound 0.02 µM)?
**A.** 0.997

**Q.** And the relative viability (NCI-H838; first compound 0.2 µM)?
**A.** 0.871

**Q.** And the relative viability (NCI-H838; first compound 0.6325 µM)?
**A.** 0.749

**Q.** What about the relative viability (NCI-H838; first compound 2 µM) of the same compound?
**A.** 0.838

**Q.** What about the relative viability (COR-L 105; first compound 0.02 µM) of the same compound?
**A.** 0.872

**Q.** And the relative viability (COR-L 105; first compound 0.2 µM)?
**A.** 1.02

**Q.** What about the relative viability (COR-L 105; first compound 0.6325 µM) of the same compound?
**A.** 0.63

**Q.** What about the relative viability (COR-L 105; first compound 2 µM) of the same compound?
**A.** 0.58

**Q.** What about the relative viability (NCI-H322M; first compound 0.02 µM) of the same compound?
**A.** 0.999

**Q.** What about the relative viability (NCI-H322M; first compound 0.2 µM) of the same compound?
**A.** 0.962

**Q.** What about the relative viability (NCI-H322M; first compound 0.6325 µM) of the same compound?
**A.** 0.924

**Q.** And the relative viability (NCI-H322M; first compound 2 µM)?
**A.** 0.569

**Q.** And the relative viability (LU99A; first compound 0.02 µM)?
**A.** 0.575

**Q.** And the relative viability (LU99A; first compound 0.2 µM)?
**A.** 0.372

**Q.** What about the relative viability (LU99A; first compound 0.6325 µM) of the same compound?
**A.** 0.465

**Q.** What about the relative viability (LU99A; first compound 2 µM) of the same compound?
**A.** 0.411

**Q.** And the relative viability (201T; first compound 0.02 µM)?
**A.** 1.05

**Q.** What about the relative viability (201T; first compound 0.2 µM) of the same compound?
**A.** 0.927

**Q.** And the relative viability (201T; first compound 0.6325 µM)?
**A.** 0.91

**Q.** And the relative viability (201T; first compound 2 µM)?
**A.** 0.809

**Q.** What about the relative viability (NCI-H2023; first compound 0.02 µM) of the same compound?
**A.** 0.771

**Q.** And the relative viability (NCI-H2023; first compound 0.2 µM)?
**A.** 0.588

**Q.** What about the relative viability (NCI-H2023; first compound 0.6325 µM) of the same compound?
**A.** 0.542

**Q.** And the relative viability (NCI-H2023; first compound 2 µM)?
**A.** 0.366

**Q.** And the relative viability (NCI-H727; first compound 0.02 µM)?
**A.** 0.284

**Q.** And the relative viability (NCI-H727; first compound 0.2 µM)?
**A.** 0.159

**Q.** And the relative viability (NCI-H727; first compound 0.6325 µM)?
**A.** 0.26

**Q.** And the relative viability (NCI-H727; first compound 2 µM)?
**A.** 0.176

**Q.** What about the relative viability (PC-3 [JPC-3]; first compound 0.02 µM) of the same compound?
**A.** 0.961

**Q.** And the relative viability (PC-3 [JPC-3]; first compound 0.2 µM)?
**A.** 0.891

**Q.** What about the relative viability (PC-3 [JPC-3]; first compound 0.6325 µM) of the same compound?
**A.** 0.875

**Q.** What about the relative viability (PC-3 [JPC-3]; first compound 2 µM) of the same compound?
**A.** 0.583

**Q.** What about the relative viability (EMC-BAC-2; first compound 0.02 µM) of the same compound?
**A.** 0.813

**Q.** What about the relative viability (EMC-BAC-2; first compound 0.2 µM) of the same compound?
**A.** 0.775

**Q.** What about the relative viability (EMC-BAC-2; first compound 0.6325 µM) of the same compound?
**A.** 0.642

**Q.** What about the relative viability (EMC-BAC-2; first compound 2 µM) of the same compound?
**A.** 0.497

**Q.** And the relative viability (ABC-1; first compound 0.02 µM)?
**A.** 0.61

**Q.** And the relative viability (ABC-1; first compound 0.2 µM)?
**A.** 0.902

**Q.** What about the relative viability (ABC-1; first compound 0.6325 µM) of the same compound?
**A.** 0.677

**Q.** And the relative viability (ABC-1; first compound 2 µM)?
**A.** 0.753

**Q.** And the relative viability (BEN; first compound 0.02 µM)?
**A.** 0.991

**Q.** What about the relative viability (BEN; first compound 0.2 µM) of the same compound?
**A.** 0.914

**Q.** And the relative viability (BEN; first compound 0.6325 µM)?
**A.** 1.15

**Q.** What about the relative viability (BEN; first compound 2 µM) of the same compound?
**A.** 0.64
